Source: patent publication US20230293629A1, “METHODS FOR ATTENUATING RELEASE OF INFLAMMATORY MEDIATORS AND PEPTIDES USEFUL THEREIN” (BIOMARCK PHARMACEUTICALS LTD., priority 2006, published 2023)

What was measured:
[1] = test system: MARCKS phosphorylation in NHBE cells; assay: MARCKS phosphorylation in NHBE cells, radiolabeled immunoprecipitation assay; type: cell-based, human
Protocol: Radiolabeled Immunoprecipitation Assay—When labeling with [^32P]phosphate, cells were preincubated for 2 h in phosphate-free Dulbecco's modified Eagle's medium containing 0.2% bovine serum albumin and then labeled with 0.1 mCi/ml [^32P]orthophosphate (9000 Ci/mmol, PerkinElmer Life Sciences) for 2 h. For labeling with [^3H]myristic acid or 3H-amino acids, cells were incubated overnight in medium containing 50 μCi/ml [^3H]myristic acid (49 Ci/mmol, PerkinElmer Life Sciences) or 0.2 mCi/ml [^3H]leucine (159 Ci/mmol, PerkinElmer Life Sciences) plus 0.4 mCi/ml [^3H]proline (100 Ci/mmol, PerkinElmer Life Sciences). Following labeling, cells were exposed to stimulatory reagents for 5 min. When an inhibitor was used, cells were preincubated with the inhibitor for 15 min prior to stimulation. At the end of the treatments, cells were lysed in a buffer containing 50 mM Tris-HCl (pH 7.5), 150 mM NaCl, 1 mM EDTA, 10% glycerol, 1% Nonidet P-40, 1 mM phenylmethylsulfonyl fluoride, 1 mM benzamidine, 10 μg/ml pepstatin A, and 10 μg/ml leupeptin. Trichloroacetic acid precipitation and scintillation counting may determine the radiolabeling efficiency in each culture. Immunoprecipitation of MARCKS protein was carried out according to the method of Spizz and Blackshear using cell lysates containing equal counts/min. Spizz et al., J. Biol. Chem. 271, 553-562 (1996). Precipitated proteins were resolved by 8% SDS-polyacrylamide gel electrophoresis and visualized by autoradiography. Anti-human MARCKS antibody (2F12) and nonimmune control antibody (6F6) were used in this assay.
To assess MARCKS or MARCKS-associated protein complexes in different subcellular fractions, radiolabeled and treated cells were scraped into a homogenization buffer (50 mM Tris-HCl (pH 7.5), 10 mM NaCl, 1 mM EDTA, 1 mM phenylmethylsulfonyl fluoride, 1 mM benzamidine, 10 μg/ml pepstatin A, 10 μg/ml leupeptin) and then disrupted by nitrogen cavitation (800 pounds/square inch for 20 min at 4° C.). Cell lysates were centrifuged at 600×g for 10 min at 4° C. to remove nuclei and unbroken cells. Post-nuclear supernatants were separated into membrane and cytosol fractions by ultracentrifugation at 400,000×g for 30 min at 4° C. The membrane pellet was solubilized in the lysis buffer by sonication. Immunoprecipitation was then carried out as described above.

PP2A [2] = assay: Protein phosphatase activity assay in NHBE cell lysates, PP2A; type: cell-based, human
Protocol: (§1) Protein Phosphatase Activity Assay—PP1 and PP2A activities were measured using a protein phosphatase assay system (Life Technologies, Inc.) as known in the art with slight modification. Huang et al., Adv. Exp. Med Biol. 396, 209-215 (1996). Briefly, NHBE cells were treated with 8-Br-cGMP or medium alone for 5 min. Cells were then scraped into a lysis buffer (50 mM Tris-HCl (pH 7.4), 0.1% β-mecaptoethanol, 0.1 mM EDTA, 1 mM benaamidine, 10 μg/ml pepstatin A, 10 μg/ml leupeptin) and disrupted by sonication for 20 s at 4° C. Cell lysates were centrifuged and the supernatants saved for phosphatase activity assay. The assay was performed using ^32P-labeled phosphorylase A as a substrate. Released ^32Pi was counted by scintillation. The protein concentration of each sample was determined by the Bradford assay. PP2A activity was expressed as the sample total phosphatase activity minus the activity remaining in the presence of 1 nM okadaic acid. PP1 activity was expressed as the difference between the activities remaining in the presence of 1 nM and 1 μM okadaic acid, respectively. Protein phosphatase activities were reported as nmol of Pi released per min/mg total protein.

[3] = test system: isolated human neutrophils; assay: MPO secretion from isolated human neutrophils stimulated with PMA + 8-Br-cGMP (FIG. 7, 8, 9); type: cell-based; details: FIG. 9; 8-Br-cGMP alone, until co-stimulation with PMA
PP1 = assay: Protein phosphatase activity assay in NHBE cell lysates, PP1; type: cell-based, human; details: NHBE cells after 8-Br-cGMP
Protocol: as §1

[4] = test system: isolated canine neutrophils; assay: MPO secretion from isolated canine neutrophils stimulated with PMA + 8-Br-cGMP (FIG. 6, 10, 11); type: cell-based; details: FIG. 11; 8-Br-cGMP alone, until co-stimulation with PMA
Text: The invention also relates to a new method for blocking any cellular exocytotic secretory process, especially those releasing inflammatory mediators from granules contained within inflammatory cells, whose stimulatory pathways involve the protein kinase C (PKC) substrate MARCKS protein and release of contents from membrane-bound vesicles. Specifically, the inventors have shown that stimulated release of the inflammatory mediator myloperoxidase from human (FIG. 6) or canine (FIG. 7) neutrophils can be blocked in a concentration-dependent manner by the MANS peptide. […] 10 or 100 μM of a control peptide (RNS) has no effect on MPO secretion. In FIG. 7, isolated neutrophils were stimulated to secrete myloperoxidase (MPO) with 100 nM PMA and 10 μM 8-Br-cGMP. […] 10 or 100 μM of a control peptide (RNS) has no effect on MPO secretion. Thus, the peptide may be used therapeutically to block the release of mediators of inflammation secreted from infiltrating inflammatory cells in any tissues. Many of these released mediators are responsible for the extensive tissue damage observed in a variety of chronic inflammatory diseases (i.e., respiratory diseases such as asthma, chronic bronchitis and COPD, inflammatory bowel diseases including ulcerative colitis and Crohn's disease, autoimmune diseases, skin diseases such as rosacea, eczema; and severe acne, arthritic and pain syndromes such as rheumatoid arthritis and fibromyalgia). This invention may be useful for treating diseases such as arthritis, chronic bronchitis, COPD and cystic fibrosis. This invention is accordingly useful for the treatment in both human and animal diseases, especially those affecting equines, canines, felines, and other household pets.
FIGS. 8-12 show MPO secretion for both humans and canines. In all of these experiments, isolated neutrophils were stimulated with LPS at a concentration of 1×10^−6 M for 10 minutes at 37° C. prior to adding the stimuli as indicated in the figures. The LPS primes the cells so they can respond to a secretagogue.
Isolation of PMNs from canine blood—The steps involved in isolating PMN include collecting 10 ml ACD anticoagulated blood. Then layering 5 ml on 3.5 ml PMN isolation media while ensuring that the PMN isolation media (IM) was at room temperature (RI). Next, the blood was centrifuged at room temperature for 30′, 550×g at 1700 RPMs. The low lower white band was transferred into 15 ml conical centrifuge tube (CCFT). Next, 2V HESS with 10% fetal bovine serum […] was added and centrifuged at room temperature for 10′, 400×g at 1400 RPMs. The pellet was then resuspended in 5 ml 1-1ESS with PBS. The cell suspension was added to 50 ml CCFT containing 20 ml of ice cold 0.88% NH4Cl and inverted two to three times. The resulting product was centrifuged for 10′, 800×g at 2000 RPMs, then aspirated and resuspended in 5 ml HBSS with FBS. The prep was examined by counting and cytospin and preferably for whole blood, the cell number should be between 10^9-10^11 cells and for PMNs, cell number should be between 2-4×10^7 cells. See generally, Wang et al., J. Immunol., “Neutrophil-induced changes in the biomechanical properties of endothelial cells: roles of ICAM-1 and reactive oxygen species,” 6487-94 (2000).
MPO Colorimetric Enzyme Assay—Samples were assayed for MPO activity in 96 well round bottom microtiter plates using a sandwich ELISA kit (R & D Systems, Minneapolis, Minn.). […]

NHBE cells = assay: Mucin secretion from NHBE cells, ELISA; type: cell-based, human; details: FIG. 3; NHBE cells preincubated 15 min; okadaic acid 500 nM, fostriecin indicated concentrations
Protocol: It is believed that PKG acts to dephosphorylate MARCKS via activation of a protein phosphatase. […] NHBE cells were preincubated with the indicated concentration of fostriecin, okadaic acid (500 nM), or medium alone for 15 min and then stimulated with PMA (100 nM)+8-Br-cGMP (1 μM) for 15 min or with UTP (100 μM) for 2 h. Secreted mucin was measured by ELISA. […] Thus, dephosphorylation of MARCKS by a PKG-activated PP2A appears to be an essential component of the signaling pathway leading to mucin granule exocytosis.
MARCKS-related Peptides—Both the myristoylated N-terminal sequence (MANS) and the random N-terminal sequence (RNS) peptides were synthesized at Genemed Synthesis, Inc. (San Francisco, Calif.), then purified by high pressure liquid chromatography (>95% pure), and confirmed by mass spectroscopy with each showing one single peak with an appropriate molecular mass. The MANS peptide consisted of sequence identical to the first 24 amino acids of MARCKS, i.e. the myristoylated N-terminal region that mediates MARCKS insertion into membranes, MA-[…] […]

PP2A [5] = target: PP2A (Homo sapiens, UniProt P67775); details: inhibitor of PP2A; cited from earlier work
Sequence of PP2A (Homo sapiens, UniProt P67775) (P67775 whole entry): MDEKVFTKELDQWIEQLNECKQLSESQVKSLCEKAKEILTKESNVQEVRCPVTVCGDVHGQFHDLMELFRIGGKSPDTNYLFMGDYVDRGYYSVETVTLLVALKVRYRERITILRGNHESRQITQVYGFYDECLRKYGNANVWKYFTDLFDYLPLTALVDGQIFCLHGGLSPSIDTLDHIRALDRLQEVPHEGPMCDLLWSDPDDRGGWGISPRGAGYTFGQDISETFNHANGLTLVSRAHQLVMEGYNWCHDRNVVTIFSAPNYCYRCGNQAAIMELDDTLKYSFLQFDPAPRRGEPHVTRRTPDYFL

Structure (SMILES)	effect on MARCKS phosphorylation induced by PMA ([1]; 1 μM 8-Br-cGMP, 100 nM PMA)	PP2A activity (PP2A [2]; NHBE cells after 8-Br-cGMP, from 0.1) [nmol/min/mg proteins]	increase of PP2A activity (PP2A [2]; NHBE cells, 8-Br-cGMP as low as 0.1 μM, p<0.01)	MPO secretion from LPS-stimulated human neutrophils [3]	PP1 activity (PP1)	MPO secretion from LPS-stimulated canine neutrophils [4]	mucin secretion induced by PMA+8-Br-cGMP or UTP (NHBE cells)	effect on PKG-induced MARCKS dephosphorylation ([1]; fostriecin 1-500 nM)	IC50 (PP2A [5]) [nM]	effect on PKG-induced MARCKS dephosphorylation ([1]; 500 nM okadaic acid)
Nc1nc2c(nc(Br)n2[C@@H]2O[C@@H]3COP(=O)(O)O[C@H]3[C@H]2O)c(=O)[nH]1 [8-Br-cGMP]	reversed	0.3	approximately 3 fold	little effect	remained unchanged	little effect				
C[C@@](O)(/C=C/[C@H]1CC=CC(=O)O1)[C@@H](C[C@@H](O)\C=C/C=C\C=C\CO)OP(=O)(O)O [fostriecin]							attenuated mucin secretion	inhibited PKG-induced MARCKS dephosphorylation in a concentration-dependent manner	3.2	
C=C1[C@@H](O)[C@@H]2O[C@]3(CC[C@H](/C=C/[C@@H](C)[C@@H]4CC(C)=C[C@@]5(O[C@H](C[C@@](C)(O)C(=O)O)CC[C@H]5O)O4)O3)CC[C@H]2O[C@@H]1[C@@H](O)C[C@H](C)[C@H]1O[C@@]2(CCCCO2)CC[C@H]1C [okadaic acid]							attenuated mucin secretion			blocked
